We go through two compounds from paper PMC3397408, “Natural and synthetic cathelicidin peptides with anti-microbial and anti-biofilm activity against Staphylococcus aureus” (BMC Microbiology, 2011).

Data set [1] has as its system S. aureus (ATCC 25923). How it is done:
S. aureus (ATCC 25923, American Type Culture Collection, Manassas, VA) was grown in Nutrient Broth (Difco Laboratories, Detroit, Mich.) at pH 7, 37°C, 24 h with shaking at 200 rpm. The overnight culture was frozen with 20% glycerol and stored at -80°C. The frozen stock was enumerated (CFU/ml) by dilution plating and growth on Nutrient Agar plates.
For anti-microbial assays, frozen enumerated aliquots were thawed and gently mixed immediately before use. In a 96-well plate (BD Falcon 353072), 1 × 10^5 CFU per well bacteria were incubated with different peptide concentrations (in serial dilutions of 1:10 across the plate) in a solution of buffer containing sterile 10 mM sodium phosphate (pH 7.4) and incubated (3 h, 37°C). Negative control wells contained bacteria with no peptide. Serial dilutions were then carried out in sterile 1x PBS (Fisher Scientific) (pH 7) and plated in triplicate on Nutrient Agar plates, incubated (37°C, 24 h) and counted. […] The EC50 was calculated as previously described.
Each experiment was repeated at least twice, and a representative experiment is shown, for clarity. Errors were reported based on the standard deviation from the mean of the log10 EC50 values. 95% confidence intervals were used to determine whether points were statistically different at p = 0.05.

The test system of data set [2] is S. aureus biofilm formation. The settings on record: peptide 10 μg/ml, TSB, 24 h, 37°C, polystyrene 96-well plate, crystal violet 570 nm, n = 6, relative to 0 peptide control. The procedure:
(§1) C. […] Growth (absorbance at 600 nm) is indicated by gray bars with "0 peptide" control set to 100%. Biofilm detection on a polystyrene 96-well plate at 37°C after 24 h of growth in TSB was detected as the absorbance of crystal violet stain (570 nm). Percent biofilm production is indicated by black bars (n = 6), relative to "0 peptide" control. Each experiment is a representative of at least two independent trials. Error bars indicate the standard deviation from the mean. The asterisk (*) indicates statistically different than the positive control (p < 0.01).
(§2) Biofilm production was measured as previously described with the following modifications. […] The positive control is S. aureus in TSB with no peptide. Six wells were used for each peptide concentration (n = 6). After 24 h, the optical densities (OD) of the wells were taken at 600nm to quantify […]. The biofilm production was measured using the crystal violet stain technique.
All experiments were repeated at least twice, with a representative experiment shown.

For data set [3], the system named is S. aureus. As to the kind of experiment: Bacterial growth / MIC in TSB. Type of data set: cell-based, Staphylococcus aureus. The settings on record: TSB (relatively high salt), peptide concentrations up to the EC50 found in 10 mM sodium phosphate. How it is done:
as §1, §2

The test system of data set [4] is S. aureus attachment to 96-well plate. The data set is described as follows: Biofilm attachment assay. Type of data set: cell-based, Staphylococcus aureus. The settings on record: peptide 1 μg/ml, 1 h, 37°C, TSB culture OD600 ~1.0, n = 16, Student's t test. The procedure: The attachment of Staphylococcus spp. to solid surfaces is largely seen as an essential step in the formation of biofilm. Since most of the peptides tested in our biofilm assays were capable of inhibiting biofilm formation (except for scrambled LL-37), we investigated a possible mechanism for this action. We incubated scrambled LL-37 (negative control), LL-37, D-LL-37, NA-CATH, and NA-CATH:ATRA1-ATRA1 peptides with S. aureus in a 1 hr attachment assay at peptide concentrations of 1 ug/ml, examining for the initial adherence to the wells of the 96 well tissue-culture treated plate.
Figure 3 Attachment assay of S. aureus in the presence of peptide. We tested scrambled LL-37 (negative control), LL-37, D-LL-37, NA-CATH, and NA-CATH:ATRA1-ATRA1 against S. aureus (1 h, 37°C) at 1 μg/ml, only allowing for the initial adherence to the wells.
Biofilm attachment assays were performed in a 96-well microtiter plate (BD Falcon 353072), as previously described. Overnight cultures of S. aureus were grown in TSB to an optical density (600nm) of ~1.0. 200 μl culture was added to the wells, followed by no peptide, scrambled LL-37 , LL-37, D-LL-37, NA-CATH, or NA-CATH:ATRA1-ATRA1 at 1 μg/ml. […] The wells were washed and OD600 measurements were taken, as in the biofilm production experiments, and the average absorbance for each treatment was determined (n = 16).

Data set [5] concerns erythrocytes. The settings on record: examined up to 200 μg/ml; cited from earlier work. How it is done:
The hemolytic activity of each of the peptides was determined using 2% horse erythrocytes as previously described.

Where two headings read alike, the source gives them in different places. Where no end group is shown, it is not given here.

Turning to KRAKKFFKKLK-NH2 [ATRA-1A], the EC50 in data set [1] (EC50 in μg/ml converted with the molecular weight of the TFA salt of the peptide) is 310 nM; in data set [1] (S. aureus ATCC 25923, 1 × 10^5 CFU per well, 3 h, 37°C, 10 mM sodium phosphate (pH 7.4), % survival by CFU counts, plated in triplicate, representative experiment) it was 0.73 µg/mL. Moreover, the “fold change of activity against S. aureus, ATRA-1A compared to ATRA-1” value in data set [1] (p > 0.05) amounted to 1.4 fold.

For `CC[C@H](C)[C@H](NC(=O)[C@H](CCCCN)NC(=O)[C@H](CCC(=O)O)NC(=O)[C@H](CCCCN)NC(=O)[C@H](CO)NC(=O)[C@H](CCCCN)NC(=O)[C@H](CCCNC(=N)N)NC(=O)[C@H](Cc1ccccc1)NC(=O)[C@H](Cc1ccccc1)NC(=O)[C@H](CC(=O)O)NC(=O)CNC(=O)[C@H](CC(C)C)NC(=O)[C@@H](N)CC(C)C)C(=O)NCC(=O)N[C@@H](CCCCN)C(=O)N[C@@H](CCC(=O)O)C(=O)N[C@@H](Cc1ccccc1)C(=O)N[C@@H](CCCCN)C(=O)N[C@@H](CCCNC(=N)N)C(=O)N[C@H](C(=O)N[C@H](C(=O)N[C@@H](CCC(N)=O)C(=O)N[C@@H](CCCNC(=N)N)C(=O)N[C@H](C(=O)N[C@@H](CCCCN)C(=O)N[C@@H](CC(=O)O)C(=O)N[C@@H](Cc1ccccc1)C(=O)N[C@@H](CC(C)C)C(=O)N[C@@H](CCCNC(=N)N)C(=O)N[C@@H](CC(N)=O)C(=O)N[C@@H](CC(C)C)C(=O)N[C@H](C(=O)N1CCC[C@H]1C(=O)N[C@@H](CCCNC(=N)N)C(=O)N[C@H](C(=O)N[C@@H](CCC(=O)O)C(=O)N[C@@H](CO)C(=O)O)[C@@H](C)O)C(C)C)[C@@H](C)CC)C(C)C)[C@@H](C)CC` [LL-37], the “inhibition of biofilm formation” value in data set [2] was ~ 40%. Also, the “bacterial growth (OD600 at 24 hours)” value in data set [3] is recorded as “not decreased”. In addition, the “attachment of S. aureus to the wells” value in data set [4] is on record as “significantly decreased”. In addition, the “hemolytic activity” value in data set [5] is “similarly low levels”.

Usually EC50 stands for the concentration that produces a half-maximal response.
